# US7790732B2, “5-Chloro-4-alkyl-3,4-dihydro-quinazolin-2-ylamine derivatives” (Hoffman-La Roche Inc., priority 2005, dated 2010)
# Target: T1, recombinant human 5-HT5A receptor (Homo sapiens, UniProt P47898)
# T1 construct: expressed in transfected cells; host or cells: HEK-EBNA (Human Embryonic Kidney-EBNA) cells, transient cDNA expression, membranes
# Assay: [3H]LSD radioligand binding assay, recombinant human 5-HT5A receptor in HEK-EBNA cell membranes
# Conditions: [3H]LSD approximately 1 nM; membranes from HEK-EBNA cells; Ki from IC50 by the Cheng-Prussoff equation
# Protocol: A [^3H] LSD radioligand binding assay was used to determine the affinity of the compounds for the recombinant human 5-HT5A receptor in membranes from transiently (cDNA) expressed 5-HT5A receptors in Human Embryonic Kidney-EBNA (HEK-EBNA) cells. Assay buffer consisted of Tris (50 mM) buffer containing 1 mM EGTA, 10 mM MgCl2 (pH 7.4) and 10 μM pargyline. The binding assay was carried out in 96-well-plates in the presence of [^3H]LSD (approximately 1 nM), approximately 2 μg/well of membrane protein, and 0.5 mg of Ysi-poly-1-lysine SPA beads in a final volume of 200 μl of buffer. Non-specific binding was defined using methiothepin 2 μM. Compounds were tested at 10 concentrations. All assays were conducted in duplicate and repeated at least two times. Assay plates were incubated for 120 min at room temperature before centrifugation. Bound ligand was determined using a Packard Topcount scintillation counter. IC50 values were calculated using a non-linear curve fitting program, and Ki values were calculated using the Cheng-Prussoff equation.
# T1 sequence (P47898 whole entry): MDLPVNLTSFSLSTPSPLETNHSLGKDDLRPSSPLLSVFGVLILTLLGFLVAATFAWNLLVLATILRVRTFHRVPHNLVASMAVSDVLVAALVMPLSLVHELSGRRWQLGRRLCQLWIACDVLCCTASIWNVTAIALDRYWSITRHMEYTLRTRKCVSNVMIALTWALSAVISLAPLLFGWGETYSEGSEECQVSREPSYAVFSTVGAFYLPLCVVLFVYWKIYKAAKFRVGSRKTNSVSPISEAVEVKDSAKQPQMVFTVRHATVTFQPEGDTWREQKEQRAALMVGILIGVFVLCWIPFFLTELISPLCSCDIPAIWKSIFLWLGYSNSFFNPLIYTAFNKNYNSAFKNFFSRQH
row,Structure (SMILES),Ki [nM]
1,"CC1NC(N)=Nc2cccc(Cl)c21 (stereo not shown) [Example 1, 5-Chloro-4-methyl-3,4-dihydro-quinazolin-2-ylamine]",5.13
2,"CNC1=Nc2cccc(Cl)c2C(C)N1 (stereo not shown) [Example 2, (5-Chloro-4-methyl-3,4-dihydro-quinazolin-2-yl)-methyl-amine]",10.8
3,"CC1NC(NC2CCC2)=Nc2cccc(Cl)c21 (stereo not shown) [Example 3, (5-Chloro-4-methyl-3,4-dihydro-quinazolin-2-yl)-cyclobutyl-amine]",15.5
4,"CC1NC(NCC(F)F)=Nc2cccc(Cl)c21 (stereo not shown) [Example 5, (5-Chloro-4-methyl-3,4-dihydro-quinazolin-2-yl)-(2,2-difluoro-ethyl)-amine]",10.1
5,"CCCCCNC1=Nc2ccc(Cl)c(Cl)c2C(C)N1 (stereo not shown) [Example 18, (5,6-Dichloro-4-methyl-3,4-dihydro-quinazolin-2-yl)-pentyl-amine]",13.9
6,"COCCCNC1=Nc2ccc(Cl)c(Cl)c2C(C)N1 (stereo not shown) [Example 19, (5,6-Dichloro-4-methyl-3,4-dihydro-quinazolin-2-yl)-(3-methoxy-propyl)-amine]",6.9

# More lines, in order of falling Ki, values ahead:
row,Ki [nM],Structure (SMILES)
1,17.8,"CC1NC(NCC2COCCO2)=Nc2ccc(Cl)c(Cl)c21 (stereo not shown) [Example 21, (5,6-Dichloro-4-methyl-3,4-dihydro-quinazolin-2-yl)-[1,4]dioxan-2-ylmethyl-amine]"
2,8.87,"CC(=O)NCCNC1=Nc2ccc(Cl)c(Cl)c2C(C)N1 (stereo not shown) [Example 16, N-[2-(5,6-Dichloro-4-methyl-3,4-dihydro-quinazolin-2-ylamino)-ethyl]-acetamide]"
3,6.9,"CC1NC(NC2CCC2)=Nc2ccc(Cl)c(Cl)c21 (stereo not shown) [Example 15, Cyclobutyl-(5,6-dichloro-4-methyl-3,4-dihydro-quinazolin-2-yl)-amine]"
4,6.34,"CNC1=Nc2ccc(Cl)c(Cl)c2C(C)N1 (stereo not shown) [Example 9, (5,6-Dichloro-4-methyl-3,4-dihydro-quinazolin-2-yl)-methyl-amine]"
5,5.85,"CC1NC(N)=Nc2c(Cl)ccc(Cl)c21 (stereo not shown) [Example 23, 5,8-Dichloro-4-methyl-3,4-dihydro-quinazolin-2-ylamine]"
6,5.67,"CC1NC(NCC(F)F)=Nc2ccc(Cl)c(Cl)c21 (stereo not shown) [Example 10, (5,6-Dichloro-4-methyl-3,4-dihydro-quinazolin-2-yl)-(2,2-difluoro-ethyl)-amine]"
7,2,"CC1NC(N)=Nc2ccc(Cl)c(Cl)c21 (stereo not shown) [Example 8, 5,6-Dichloro-4-methyl-3,4-dihydro-quinazolin-2-ylamine]"
